US20240294531A1, “COVALENT HETEROCYCLES AND USES THEREOF” (Kumquat Biosciences Inc., priority 2022, published 2024)

Tests used:
[1] = biological target: BTK wildtype protein (Homo sapiens (Human), UniProt Q06187); experiment: BTK wildtype HTRF displacement assay; type: binding; conditions: 1-hour incubation; read-out: BTK (wt) IC50
In short: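 Full-length N-terminal GST-tagged BTK incubated 1 h at room temperature with compound (6 doses, four-fold dilutions from 5 μM top) plus kinase tracer 239 and anti-GST-Tb antibody. Tracer displacement read as TR-FRET 665/620 ratio, background-subtracted using no-protein control. IC50 from four-parameter fit constrained 0–100% inhibition.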

[2] = biological target: BTK C481S protein (Homo sapiens (Human), UniProt Q06187, C481S); experiment: BTK C481S HTRF displacement assay; type: binding; conditions: 1-hour incubation
Sequence of BTK C481S protein (Q06187 2-659 C481S): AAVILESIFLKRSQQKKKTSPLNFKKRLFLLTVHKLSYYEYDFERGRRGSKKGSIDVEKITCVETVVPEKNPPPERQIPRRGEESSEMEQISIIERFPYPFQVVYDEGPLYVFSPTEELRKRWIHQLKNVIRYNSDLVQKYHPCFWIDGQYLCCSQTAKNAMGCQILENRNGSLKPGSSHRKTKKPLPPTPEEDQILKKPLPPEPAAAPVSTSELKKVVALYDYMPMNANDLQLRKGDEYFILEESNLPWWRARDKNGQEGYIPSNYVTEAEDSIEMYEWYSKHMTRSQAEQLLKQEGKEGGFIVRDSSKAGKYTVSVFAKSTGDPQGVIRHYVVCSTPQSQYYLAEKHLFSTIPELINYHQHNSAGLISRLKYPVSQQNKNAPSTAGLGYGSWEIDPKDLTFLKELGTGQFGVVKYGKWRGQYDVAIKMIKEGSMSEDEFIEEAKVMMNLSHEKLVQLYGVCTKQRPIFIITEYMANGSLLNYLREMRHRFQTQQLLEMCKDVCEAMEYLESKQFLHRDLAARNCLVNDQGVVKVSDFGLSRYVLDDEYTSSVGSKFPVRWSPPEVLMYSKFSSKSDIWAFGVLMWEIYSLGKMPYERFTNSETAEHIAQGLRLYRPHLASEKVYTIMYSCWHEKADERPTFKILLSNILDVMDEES
In short: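 N-terminal GST-tagged BTK C481S (2-659) incubated 1 hour at room temperature with compound (6 doses, four-fold from 5 μM), 50 nM kinase tracer 239 and anti-GST-Tb antibody. TR-FRET 665/620 ratio, background-subtracted; IC50 from constrained four-parameter fit. KI=IC50/(1+[Tracer]/Kd), tracer Kd 54 nM.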

Sequence of BTK wildtype protein (Q06187 2-659): as the sequence (Q06187 2-659 C481S) above, with S480C counted along it

Structure (SMILES)	IC50 [1]	IC50 [2]
CC(CC1CCNc2c(C(N)=O)c(-c3ccc(Oc4ccccc4)cc3)nn21)N(C)C(=O)n1cncn1 (stereo not shown) [Compound 309, 7-(2-(N-methyl-1H-1,2,4-triazole-1-carboxamido)propyl)-2-(4-phenoxyphenyl)-4,5,6,7-tetrahydro-pyrazolo[1,5-a]pyrimidine-3-carboxamide]	≤ 1 µM	≤ 1 µM
COc1ccc(F)cc1C(=O)NCc1ccc(-c2nn(C[C@@H]3CCCN3C(=O)n3cncn3)c3ncnc(N)c23)cc1 [Compound 251, (S)-N-(4-(1-((1-(1H-1,2,4-triazole-1-carbonyl)pyrrolidin-2-yl)methyl)-4-amino-1H-pyrazolo[3,4-d]pyrimidin-3-yl)benzyl)-5-fluoro-2-methoxybenzamide]	≤ 1 µM	≤ 1 µM
CC1CC(n2nc(-c3ccc(Oc4ccccc4)cc3)c3c(N)ncnc32)CC(C)N1C(=O)n1cncn1 (stereo not shown) [Compound 101, (4-(4-amino-3-(4-phenoxyphenyl)-1H-pyrazolo[3,4-d]pyrimidin-1-yl)-2,6-dimethylpiperidin-1-yl)(1H-1,2,4-triazol-1-yl)methanone]	≤ 1 µM	≤ 1 µM
COc1ccc(F)cc1C(=O)NCc1ccc(-c2nn(C(Cc3ccncc3)CN(C)C(=O)n3cncn3)c3ncnc(N)c23)cc1 (stereo not shown) [Compound 281]	> 1 µM	> 1 µM
COc1ccc(F)cc1C(=O)NCc1ccc(-c2nn(CC3C(C)CCCN3C(=O)n3cncn3)c3ncnc(N)c23)cc1 (stereo not shown) [Compound 271, N-(4-(4-amino-1-((3-methyl-1-(1H-1,2,4-triazole-1-carbonyl)piperidin-2-yl)methyl)-1H-pyrazolo[3,4-d]pyrimidin-3-yl)benzyl)-5-fluoro-2-methoxybenzamide]	> 1 µM	> 1 µM
CC1CN(Cc2ccc(C(F)(F)F)cc2N2CCCC2)CCN1C(=O)n1cncn1 (stereo not shown) [Compound 106, (2-methyl-4-(2-(pyrrolidin-1-yl)-4-(trifluoromethyl)benzyl)piperazin-1-yl)(1H-1,2,4-triazol-1-yl)methanone]	> 1 µM	> 1 µM
Nc1ncnc2c1c(-c1ccc(Oc3ccccc3)cc1)nn2CC1CCCCN1C(=O)n1cncn1 (stereo not shown) [Compound 267, (2-((4-amino-3-(4-phenoxyphenyl)-1H-pyrazolo[3,4-d]pyrimidin-1-yl)methyl)piperidin-1-yl)(1H-1,2,4-triazol-1-yl)methanone]	≤ 1 µM	≤ 1 µM
CN(CC1CCNc2c(C(N)=O)c(-c3ccc(Oc4ccccc4)cc3)nn21)C(=O)n1cncn1 (stereo not shown) [Compound 113, 7-((N-methyl-1H-1,2,4-triazole-1-carboxamido)methyl)-2-(4-phenoxyphenyl)-4,5,6,7-tetrahydro-pyrazolo[1,5-a]pyrimidine-3-carboxamide]	> 1 µM	> 1 µM
COc1ccc(F)cc1C(=O)NCc1ccc(-c2nn(C(C)CCN(C)C(=O)n3cncn3)c3ncnc(N)c23)cc1 (stereo not shown) [Compound 303, N-(3-(4-amino-3-(4-((5-fluoro-2-methoxybenzamido)methyl)phenyl)-1H-pyrazolo[3,4-d]pyrimidin-1-yl)butyl)-N-methyl-1H-1,2,4-triazole-1-carboxamide]	≤ 1 µM	≤ 1 µM
COc1ccc(F)cc1C(=O)NCc1ccc(-c2nn(C(C)CC3CCCCN3C(=O)n3cncn3)c3ncnc(N)c23)cc1 (stereo not shown) [Compound 129, N-(4-(1-(1-(1-(1H-1,2,4-triazole-1-carbonyl)piperidin-2-yl)propan-2-yl)-4-amino-1H-pyrazolo[3,4-d]pyrimidin-3-yl)benzyl)-5-fluoro-2-methoxybenzamide]	> 1 µM	> 1 µM
COc1nn(C)cc1Nc1nc(N2CCCC3(CCN3C(=O)n3cncn3)C2)nc2c1ncn2C (stereo not shown) [Compound 102, (6-(6-((3-methoxy-1-methyl-1H-pyrazol-4-yl)amino)-9-methyl-9H-purin-2-yl)-1,6-diazaspiro[3.5]nonan-1-yl) (1H-1,2,4-triazol-1-yl)methanone]	> 1 µM	> 1 µM
NC(=O)c1c(-c2ccc(Oc3ccccc3)cc2)nn(C2CCCCN(C(=O)n3cncn3)C2)c1N (stereo not shown) [Compound 159, 1-(1-(1H-1,2,4-triazole-1-carbonyl)azepan-3-yl)-5-amino-3-(4-phenoxyphenyl)-1H-pyrazole-4-carboxamide]	≤ 1 µM	≤ 1 µM
COc1ccc(F)cc1C(=O)NCc1ccc(-c2nn(CCCN(C(=O)n3cncn3)C3CC3)c3ncnc(N)c23)cc1 [Compound 287, N-(3-(4-amino-3-(4-((5-fluoro-2-methoxybenzamido)methyl)phenyl)-1H-pyrazolo[3,4-d]pyrimidin-1-yl)propyl)-N-cyclopropyl-1H-1,2,4-triazole-1-carboxamide]	≤ 1 µM	≤ 1 µM
COc1ccc(F)cc1C(=O)NCc1ccc(-c2nn(C3CCCCC3CN(C)C(=O)n3cncn3)c3ncnc(N)c23)cc1 (stereo not shown) [Compound 198, N-((2-(4-amino-3-(4-((5-fluoro-2-methoxybenzamido)methyl)phenyl)-1H-pyrazolo[3,4-d]pyrimidin-1-yl)cyclohexyl)methyl)-N-methyl-1H-1,2,4-triazole-1-carboxamide]	≤ 1 µM	≤ 1 µM
CC1(C)CC(n2nc(-c3ccc(Oc4ccccc4)cc3)c3c(N)ncnc32)CCN1C(=O)n1cncn1 (stereo not shown) [Compound 148, (4-(4-amino-3-(4-phenoxyphenyl)-1H-pyrazolo[3,4-d]pyrimidin-1-yl)-2,2-dimethylpiperidin-1-yl)(1H-1,2,4-triazol-1-yl)methanone]	≤ 1 µM	≤ 1 µM
COc1ccc(F)cc1C(=O)NCc1ccc(-c2nn(C[C@@H]3CCCC[C@H]3CN(C)C(=O)n3cncn3)c3ncnc(N)c23)cc1 [Compound 130, N-(((1R,2R)-2-((4-amino-3-(4-((5-fluoro-2-methoxybenzamido)methyl)phenyl)-1H-pyrazolo [3,4-d]pyrimidin-1-yl)methyl)cyclohexyl)methyl)-N-methyl-1H-1,2,4-triazole-1-carboxamide]	≤ 1 µM	≤ 1 µM
NC(=O)c1c(-c2ccc(Oc3ccccc3)cc2)nn(C2CCC3(C2)CN(C(=O)n2cncn2)C3)c1N (stereo not shown) [Compound 165, 1-(2-(1H-1,2,4-triazole-1-carbonyl)-2-azaspiro[3.4]octan-6-yl)-5-amino-3-(4-phenoxyphenyl)-1H-pyrazole-4-carboxamide]	≤ 1 µM	≤ 1 µM
COc1ccc(F)cc1C(=O)NCc1ccc(-c2nn(C[C@@H]3C[C@@H](F)CN3C(=O)n3cncn3)c3ncnc(N)c23)cc1 [Compound 221, N-(4-(4-amino-1-(((2S,4R)-4-fluoro-1-(1H-1,2,4-triazole-1-carbonyl)pyrrolidin-2-yl)methyl)-1H-pyrazolo[3,4-d]pyrimidin-3-yl)benzyl)-5-fluoro-2-methoxybenzamide]	> 1 µM	≤ 1 µM
COc1ccc(F)cc1C(=O)NCc1ccc(-c2nn(CC3CCCC3N(C)C(=O)n3cncn3)c3ncnc(N)c23)cc1 (stereo not shown) [Compound 211, N-(2-((4-amino-3-(4-((5-fluoro-2-methoxybenzamido)methyl)phenyl)-1H-pyrazolo[3,4-d]pyrimidin-1-yl)methyl)cyclopentyl)-N-methyl-1H-1,2,4-triazole-1-carboxamide]	≤ 1 µM	≤ 1 µM
COc1ccc(F)cc1C(=O)NCc1ccc(-c2nn(C[C@@H]3CCCCN3C(=O)n3cncn3)c3[nH]c(=O)[nH]c(=O)c23)cc1 [Compound 164]	≤ 1 µM	≤ 1 µM
COc1ccc(F)cc1C(=O)NCc1ccc(-c2nn(C(C)C3CCCCN3C(=O)n3cncn3)c3ncnc(N)c23)cc1 (stereo not shown) [Compound 304, N-(4-(1-(1-(1-(1H-1,2,4-triazole-1-carbonyl)piperidin-2-yl)ethyl)-4-amino-1H-pyrazolo[3,4-d]pyrimidin-3-yl)benzyl)-5-fluoro-2-methoxybenzamide]	≤ 1 µM	≤ 1 µM
COc1ccc(F)cc1C(=O)NCc1ccc(-c2nn(C3CCCN(C(=O)n4cncn4)C3)c(N)c2C(N)=O)cc1 (stereo not shown) [Compound 124, 1-(1-(1H-1,2,4-triazole-1-carbonyl)piperidin-3-yl)-5-amino-3-(4-((5-fluoro-2-methoxybenzamido)methyl)phenyl)-1H-pyrazole-4-carboxamide]	≤ 1 µM	≤ 1 µM
COc1ccc(F)cc1C(=O)NCc1ccc(-c2nn(CCN(C(=O)n3cncn3)C3CC3)c3ncnc(N)c23)cc1 [Compound 316, N-(2-(4-amino-3-(4-((5-fluoro-2-methoxybenzamido)methyl)phenyl)-1H-pyrazolo[3,4-d]pyrimidin-1-yl)ethyl)-N-cyclopropyl-1H-1,2,4-triazole-1-carboxamide]	> 1 µM	> 1 µM
NC(=O)c1c(-c2ccc(Oc3ccccc3)cc2)nn2c1NCCC2C1CCCN(C(=O)n2cncn2)C1 (stereo not shown) [Compound 207, 7-(1-(1H-1,2,4-triazole-1-carbonyl)piperidin-3-yl)-2-(4-phenoxy-phenyl)-4,5,6,7-tetrahydro-pyrazolo[1,5-a]pyrimidine-3-carboxamide]	≤ 1 µM	≤ 1 µM
COc1nn(C)cc1Nc1nc(N2CCC3(CCN3C(=O)n3cncn3)C2)nc2c1ncn2C (stereo not shown) [Compound 107, (6-(6-((3-methoxy-1-methyl-1H-pyrazol-4-yl)amino)-9-methyl-9H-purin-2-yl)-1,6-diazaspiro[3.4]octan-1-yl)(1H-1,2,4-triazol-1-yl)methanone]	> 1 µM	> 1 µM
CCN(CC1CCNc2c(C(N)=O)c(-c3ccc(Oc4ccccc4)cc3)nn21)C(=O)n1cncn1 (stereo not shown) [Compound 120, 7-((N-ethyl-1H-1,2,4-triazole-1-carboxamido)methyl)-2-(4-phenoxyphenyl)-4,5,6,7-tetrahydro-pyrazolo[1,5-a]pyrimidine-3-carboxamide]	> 1 µM	> 1 µM
